Here are results for 4 compounds from ChEMBL document CHEMBL1141132, “6-[1-(2,6-difluorophenyl)ethyl]pyrimidinones antagonize cell proliferation and induce cell differentiation by inhibiting (a nontelomeric) endogenous reverse transcriptase” (2005).

The test system of assay [1] is A-375. Description: Effect on apoptotic human A-375 cell death treated with DMSO(control) at a concentration of 50 uM. The class given is functional.
In assay [2] the test system is A-375. Briefly: Effect on necrotic human A-375 cell death treated with DMSO(control) at a concentration of 25 uM. Format: functional.
The subject of assay [3] is A-375. Briefly: Effect on alive human A-375 cell death treated with DMSO(control) at a concentration of 25 uM. Format: functional.
Assay [4] relates to A-375. Briefly: Percentage of alive human A-375 cells relative to DMSO-treated control at a concentration of 10 uM.
In assay [5] the test system is A-375. Description: Effect on alive human A-375 cell death treated with DMSO(control) at a concentration of 10 uM. The class given is functional.
Assay [6] concerns A-375. Description: Effect on apoptotic human A-375 cell death treated with DMSO(control) at a concentration of 25 uM. The class given is functional.
In assay [7] the test system is A-375. Briefly: Percentage inhibition of proliferation against alive human A-375 cells treated with DMSO (control) at a concentration of 50 uM. Format: functional.
For assay [8], the system named is A-375. Briefly: Percentage inhibition of proliferation against alive human A-375 cells treated with DMSO (control) at a concentration of 40 uM. The class given is functional.
For assay [9], the system named is A-375. Briefly: Effect on apoptotic human A-375 cell death treated with DMSO(control) at a concentration of 40 uM. Format: functional.
The test system of assay [10] is A-375. Description: Effect on apoptotic human A-375 cell death treated with DMSO(control) at a concentration of 10 uM. Format: functional.
For assay [11], the system named is A-375. Description: Effect on necrotic human A-375 cell death treated with DMSO(control) at a concentration of 40 uM. The class given is functional.
The test system of assay [12] is A-375. Briefly: Effect on alive human A-375 cell death treated with DMSO(control) at a concentration of 50 uM. Format: functional.
For assay [13], the system named is A-375. Description: Effect on necrotic human A-375 cell death treated with DMSO(control) at a concentration of 10 uM. The class given is functional.
For assay [14], the system named is A-375. Description: Effect on necrotic human A-375 cell death treated with DMSO(control) at a concentration of 50 uM. Format: functional.
The test system of assay [15] is A-375. Briefly: Percentage of alive human A-375 cells relative to DMSO-treated control at a concentration of 25 uM.
The test system of assay [16] is A-375. Briefly: Effect on alive human A-375 cell death treated with DMSO(control) at a concentration of 40 uM. Format: functional.
Assay [17] concerns A-375. Description: Percentage of alive human A-375 cells relative to DMSO-treated control at a concentration of 15 uM.
For assay [18], the system named is A-375. Briefly: Percentage inhibition of proliferation against alive human A-375 cells treated with DMSO (control) at a concentration of 350 uM. Format: functional.

The structures appear in SMILES notation.

On to `Cc1c(C(C)c2c(F)cccc2F)nc(SC2CCCC2)[nH]c1=O` (centres undefined), for which the Activity was 12.8% in the assay with A-375 [1]; 1% with A-375 [2]; 96.4% with A-375 [3]; 96.7% in the assay with A-375 [5]; 2.6% with A-375 [6]; 1% with A-375 [9]. Besides, the Activity with A-375 [10] came out at 2.3%; in the assay on A-375 [11], 0.3%; in the assay with A-375 [12], 80%; with A-375 [13], 1%; in the assay on A-375 [14] it was 7.2%; in the assay on A-375 [16], 98.7%. In the assay on A-375 [4], this compound came in with an alive cells at 10 µM of 77%. The inhibition at 50 µM in the assay with A-375 [7] was 14%. This compound returned an inhibition at 40 µM with A-375 [8] of 65%. This compound showed an alive cells at 25 µM in the assay with A-375 [15] of 72%.
Consider `Cc1c(C(C)c2c(F)cccc2F)nc(N(C)C)[nH]c1=O` (centres undefined), for which the Activity in the assay with A-375 [1] is listed as 8.4%; in the assay with A-375 [2], 1%; in the assay with A-375 [3], 96.3%; in the assay with A-375 [5], 97.4%; with A-375 [6], 2.3%; in the assay with A-375 [9], 3.1%. In addition, the Activity in the assay on A-375 [10] is 1.8%; in the assay on A-375 [11] it was 0.9%; in the assay with A-375 [12] it was 89%; in the assay on A-375 [13] it was 0.8%; with A-375 [14], 2.6%; with A-375 [16] it was 96%. This compound also displayed an alive cells at 10 µM with A-375 [4] of 91%. In the assay with A-375 [7], this compound showed an inhibition at 50 µM of 30%. The same compound yielded an inhibition at 40 µM in the assay on A-375 [8] of 42%. The compound further had an alive cells at 25 µM in the assay on A-375 [15] of 86%.
In the case of `O=C1Nc2ccc(Cl)cc2[C@@](C#CC2CC2)(C(F)(F)F)O1` [EFAVIRENZ], the alive cells at 15 µM in the assay with A-375 [17] turned out to be 51%.
As for `Cc1ccnc2c1NC(=O)c1cccnc1N2C1CC1` [NEVIRAPINE], in the assay on A-375 [18], the inhibition at 350 µM amounted to 35%.
